Results published in PubChem BioAssay AID1996.
Values after ≈ are worked out from the molar mass of the structure shown.

conditions: buffer; pH 7.4; 200.0 µM

| Compound | solubility kinetic |
| --- | --- |
| CN(C)C(=O)c1c2c(nc3ccccc13)CCCC2 | 32.2 µg/mL (≈ 127 µM) |
| O=C(Cc1ccccc1[N+](=O)[O-])OCN1C(=O)c2ccccc2C1=O | 13.7 µg/mL (≈ 40.3 µM) |
| CCOC(=O)N1CCN(CC(=O)Nc2sccc2C#N)CC1 | > 48.4 µg/mL |
| Cc1ccc(NC(=O)CSc2cccc[n+]2[O-])c([N+](=O)[O-])c1 | > 47.9 µg/mL |
| C=CCn1c(O)c(/C=C2\C=Nc3ccccc32)c(=O)[nH]c1=O | 4 µg/mL (≈ 13.5 µM) |
| O=C(Nc1ccc(CN2CCCCC2)cc1)c1cccc(F)c1 | 44.7 µg/mL (≈ 143 µM) |
| CCN1C(=O)/C(=C\c2ccncc2)SC1=S | 6.2 µg/mL (≈ 24.8 µM) |
| Fc1ccc(CNc2ncnc3cc(Cl)ccc23)cc1 | 3.5 µg/mL (≈ 12.2 µM) |
| Fc1ccc(NC(=S)Nc2ccc3nccnc3c2)cc1 | 41.9 µg/mL (≈ 140 µM) |
| Cl.O=C(Nc1ncccc1Cl)c1ccc2c(c1)OCCO2 | 37 µg/mL |
| CCN(Cc1ccncc1)C(=S)NCc1ccccc1 | 42.1 µg/mL (≈ 148 µM) |
| CC(=O)Nc1ccc(NC(=O)CC2CCCC2)cc1 | > 39.1 µg/mL |
| Cc1ccc(-c2csc(NC(=O)CN3CCOCC3)n2)cc1C | 39.2 µg/mL (≈ 118 µM) |
| O=C(Cc1ccc(Cl)cc1Cl)NC1CCCCCC1 | 2.2 µg/mL (≈ 7.33 µM) |
| CCN1C(=O)CSC1=Nc1ccc(C(=O)O)cc1 | 39 µg/mL (≈ 148 µM) |
| O=C1CSC(=S)N1c1cccc(O)c1 | 29 µg/mL (≈ 129 µM) |
| CC(=O)c1ccc(NC(=O)C(Cc2ccccc2)n2cccc2)cc1 (centres undefined) | 1.6 µg/mL (≈ 4.81 µM) |
| O=C(COC(=O)c1cc2ccccc2cc1O)NCc1ccccc1 | 3 µg/mL (≈ 8.95 µM) |
| COc1ccc(CCNC(=O)CN2C(=O)NC3(CCCCC3)C2=O)cc1 | > 53.9 µg/mL |
| Cc1cc2oc(=O)cc(CN3CCOCC3)c2cc1O | > 41.3 µg/mL |
| Cc1ccc(Nc2nc(N)c(C#N)c(CC#N)c2C#N)cc1 | 1.6 µg/mL (≈ 5.55 µM) |
| Nc1nc(Nc2cccc(F)c2)nc(N2CCOCC2)c1[N+](=O)[O-] | 2.9 µg/mL (≈ 8.67 µM) |
| CCOC(=O)c1ccc(NC(=O)N2CCc3ccccc3C2)cc1 | 19.2 µg/mL (≈ 59.2 µM) |
| CC(C)OCCCNC(=O)CN1CCN(Cc2ccc(Cl)cc2)C1=O | > 55.2 µg/mL |

| Compound | solubility kinetic |
| --- | --- |
| O=C(COc1ncnc2ccccc12)NCCc1ccc(F)cc1 | 41.9 µg/mL (≈ 129 µM) |
| COc1ccccc1NC(=O)COC(=O)c1[nH]c(=O)[nH]c(=O)c1N | > 50.1 µg/mL |
| C=Cn1cc[n+](CC(=O)c2ccc(Br)s2)c1.[Br-] | 53 µg/mL |
| CCCCOC(=O)c1ccc(NC(=O)C(=O)NCCN(CC)CC)cc1 | 44.3 µg/mL (≈ 122 µM) |
| CCCCNC(=O)c1ccccc1SCc1c(C)noc1C | > 47.8 µg/mL |
| CNC(=S)N1CCc2sccc2C1C (centres undefined) | > 34 µg/mL |
| c1cnc2c(c1)ccc1ncccc12 | > 27 µg/mL |
| O=C(Nc1ccc(Cl)c([N+](=O)[O-])c1)ONC1=NCCCCC1 | 42.4 µg/mL (≈ 130 µM) |
| O=S(=O)(Nc1cccc(S(=O)(=O)N2CCCC2)c1)c1ccccc1F | > 57.7 µg/mL |
| CCNC(=O)C(=O)Nc1ccc(OC)c(Cl)c1 | 2.4 µg/mL (≈ 9.35 µM) |
| CCOc1ncccc1C(=O)NCCc1c[nH]c2ccccc12 | 8.7 µg/mL (≈ 28.1 µM) |
| Cn1c(O)c(C=Nc2ccc(Br)cc2)c(=O)n(C)c1=O | 1.2 µg/mL (≈ 3.55 µM) |
| O=C(CC1Sc2ccccc2NC1=O)NCc1ccc(Cl)cc1 (centres undefined) | < 0.4 µg/mL |
| CCOC(=O)c1c(NC(=O)COC(=O)C2CC2C)sc(C)c1C (centres undefined) | < 0.7 µg/mL |
| CCc1nnc(NC(=O)C2CCCO2)s1 (centres undefined) | > 34.1 µg/mL |
| COc1ccc(C)cc1NC(=S)N1CC(C)OC(C)C1 (centres undefined) | > 44.2 µg/mL |
| CC(=O)N1CCN(c2nc3ccc([N+](=O)[O-])cc3s2)CC1 | 31.7 µg/mL (≈ 103 µM) |
| Nc1nc(NC2CCCCC2)nc(NCCO)c1[N+](=O)[O-] | 38.1 µg/mL (≈ 129 µM) |
| CC1CCc2c(sc(NC(=O)c3ccco3)c2C(=O)O)C1 (centres undefined) | > 45.8 µg/mL |
| O=C(O)c1cccc(Nc2nc3ccccc3nc2NS(=O)(=O)c2ccc(F)cc2)c1 | > 65.8 µg/mL |
| N/C(=N\OC(=O)c1ccc(Cl)c([N+](=O)[O-])c1)c1ccccc1 | 7.9 µg/mL (≈ 24.7 µM) |
| COc1ccc(C(=O)CNc2cccc(F)c2)cc1 | 4.3 µg/mL (≈ 16.6 µM) |
| COc1cccc(/C=C/c2ccc3cccc(O)c3n2)c1OC | 1.2 µg/mL (≈ 3.9 µM) |
| FC(F)(F)c1cccc(NC(=S)Nc2ccc(Cl)c(Cl)c2)c1 | 1.5 µg/mL (≈ 4.11 µM) |

| Compound | solubility kinetic |
| --- | --- |
| O=C(Cc1ccccc1)NCC1OCCc2ccccc21 (centres undefined) | 30.9 µg/mL (≈ 110 µM) |
| O=C(Nc1ccccc1)Nc1ccccc1C(=O)NCC1CC1 | 5.1 µg/mL (≈ 16.5 µM) |
| O=C(COc1ccc(Cl)cc1)Nc1nnc(C2=COCCO2)o1 | > 50.7 µg/mL |
| O=C(O)c1ccccc1-c1ccccc1C(=O)Nc1ccc2c(c1)CCC2 | > 53.6 µg/mL |
| O=C(Nc1nccs1)c1ccc2c(c1)OCO2 | 3 µg/mL (≈ 12.1 µM) |
| CC(=O)N1CCN(C(=O)c2cc(=O)c3ccccc3o2)CC1 | > 45 µg/mL |
| COc1ccc2oc(C(=O)NCc3ccco3)c(C)c2c1 | 31.6 µg/mL (≈ 111 µM) |
| O.O=C([O-])c1ccn2c(C(=O)c3ccccc3)c(-c3ccccc3)cc2c1 | > 52.4 µg/mL |
| Cc1ccc(NC(=O)CSc2nccn2Cc2ccco2)c(C)c1 | 46.8 µg/mL (≈ 137 µM) |
| CCCC(=O)c1c[nH]c(C(=O)N2CCOCC2)c1 | > 37.5 µg/mL |
| Cc1ccc(NC(=O)c2ccc3c(c2)CCN3S(C)(=O)=O)cc1C | 2 µg/mL (≈ 5.81 µM) |
| CC1(C)CC2(CCCN(C(=S)Nc3ccccc3)C2)CCO1 (centres undefined) | 46.4 µg/mL (≈ 146 µM) |
| c1ccc2c3c(c(CN4CCCC4)cc2c1)COC3 | > 38 µg/mL |
| CC(NC(=O)C(C)N1C(=O)c2cccc([N+](=O)[O-])c2C1=O)c1ccccc1 (centres undefined) | 28.3 µg/mL (≈ 77 µM) |
| O=S(=O)(c1ccsc1)N1CC=C(c2ccccc2)CC1 | 3.8 µg/mL (≈ 12.4 µM) |
| CCOC(=O)N1CCN(C(=O)COC(=O)c2cc(Cl)cc(Cl)c2)CC1 | 57.2 µg/mL (≈ 147 µM) |
| Cn1c(=O)c([N+](=O)[O-])c(N2CCSCC2)c2ccccc21 | 2.2 µg/mL (≈ 7.2 µM) |
| O=[N+]([O-])c1cccc(S(=O)(=O)N2CCCCC2)c1 | 37.5 µg/mL (≈ 139 µM) |
| COc1ccc(-c2cc(C(=O)OCC(=O)N3CCCCC3)c3ccccc3n2)cc1OC | 13.8 µg/mL (≈ 31.8 µM) |
| Nc1n[nH]c(N)c1N=Nc1ccc(F)cc1 | > 33 µg/mL |
| C=C(C)CSc1nc2sc3c(c2c(=O)n1-c1ccc(C)cc1)CCN(C)C3 | 25.6 µg/mL (≈ 64.4 µM) |
| CC(Oc1ccc2c(-c3ccccc3)cc(=O)oc2c1)C(=O)N1CCOCC1 (centres undefined) | > 56.9 µg/mL |
| Cc1nn(-c2ccccc2)c(N)c1N=O | > 30.3 µg/mL |
| Cn1c(=O)c(C(=O)NCCc2ccccc2)c(O)c2ccccc21 | 0.5 µg/mL (≈ 1.55 µM) |

| Compound | solubility kinetic |
| --- | --- |
| Nc1nc(NCc2ccco2)nc(N2CCCC2)c1[N+](=O)[O-] | > 45.6 µg/mL |
| O=C(COC(=O)c1ccc(F)c([N+](=O)[O-])c1)NC(=O)NCc1ccccc1 | 21.3 µg/mL (≈ 56.8 µM) |
| Cc1nc(N2CCNCC2)c2c3c(sc2n1)CCCC3 | 26.7 µg/mL (≈ 92.6 µM) |
| Cc1cc(-c2ccccc2)nc(N(C)C)c1S(C)(=O)=O | 25 µg/mL (≈ 86.1 µM) |
| COc1ccccc1C(=O)NCC(=O)N1CC=C(c2ccccc2)CC1 | 4.5 µg/mL (≈ 12.8 µM) |
| Cc1noc(NS(=O)(=O)c2ccc(NC(=O)COc3ccc(C#N)cc3)cc2)c1C | > 64 µg/mL |
| Cc1ccnc(NC(=O)C(C)N2C(=O)c3ccccc3C2=O)c1 (centres undefined) | 39.4 µg/mL (≈ 127 µM) |
| CC(=O)Nc1ccc(C(=O)NCCCSc2ccccc2)cc1 | 5.3 µg/mL (≈ 16.1 µM) |
| CC(=O)n1cc(C=C2C(=O)NC(=O)NC2=O)c2ccccc21 | 27.5 µg/mL (≈ 92.5 µM) |
| CCC(C)[C@H](NC(=O)NCc1cccnc1)C(=O)OC (some centres undefined) | 41.5 µg/mL (≈ 149 µM) |
| O=[N+]([O-])c1cc(-n2cccc2)ccc1N1CCOCC1 | 31.6 µg/mL (≈ 116 µM) |
| CCOc1cccc(/C=C(\C#N)C(=O)NC2CC2)c1 | 27.2 µg/mL (≈ 106 µM) |
| S=C(Nc1ccc(Cl)cc1Cl)N1CCCC1 | 8.6 µg/mL (≈ 31.2 µM) |
| CCN1CCN(C(=O)/C=C/c2ccc(OC)cc2)CC1 | > 41.2 µg/mL |
| COc1ccc(-c2nc3ccccc3nc2-c2ccccc2)cc1OC | 11 µg/mL (≈ 32.1 µM) |
| Cc1cccc(OCC2Cn3c(nc4c3c(=O)[nH]c(=O)n4C)O2)c1 (centres undefined) | 9 µg/mL (≈ 27.4 µM) |
| CC(NC(=O)CS(=O)(=O)c1ccccc1)c1ccccc1 (centres undefined) | > 45.5 µg/mL |
| CCCc1cc(=O)[nH]c(SCC(=O)Nc2ccc3ccccc3c2)n1 | 2.6 µg/mL (≈ 7.36 µM) |
| Brc1ccccc1OCCCOc1cccc2cccnc12 | 1.5 µg/mL (≈ 4.19 µM) |
| Cc1ccc(S(=O)(=O)N2CCN(C(=O)CC(C)C)CC2)cc1 | > 48.7 µg/mL |
| COc1ccc(-n2c(=S)[nH]c3sc(-c4ccccc4)cc3c2=O)c(OC)c1 | 1.7 µg/mL (≈ 4.29 µM) |
| Cc1ccc(Cn2ncc(C)c2N)o1 | > 28.7 µg/mL |
| COC(=O)Nc1c(-c2ccccc2)nc2ccc(Cl)cn12 | 2.2 µg/mL (≈ 7.29 µM) |
| COC(=O)c1c(NC(=O)C2=COCCO2)sc(C)c1C | 0.7 µg/mL (≈ 2.35 µM) |

| Compound | solubility kinetic |
| --- | --- |
| COc1ccc(S(=O)(=O)n2cnc(C)c2)cc1 | > 37.8 µg/mL |
| O=C1C=C(NCc2ccccc2)c2ccccc2C1=O | 4.6 µg/mL (≈ 17.5 µM) |
| CC(=O)c1ccc(S(=O)(=O)N2CCN(C)CC2)cc1 | > 42.4 µg/mL |
| COc1ccc(C(=O)Nc2cc(-c3ccc(C)cc3)no2)cc1 | < 0.3 µg/mL |
| C#CCn1c(-c2cccs2)nc2ccccc21 | > 35.7 µg/mL |
| CCOc1ccccc1NCc1cc(=O)oc2cc(C)ccc12 | 6.2 µg/mL (≈ 20 µM) |
| Cc1csc(Nc2nc(N)c(C(=O)Nc3cc(Cl)ccc3F)o2)n1 | 3.1 µg/mL (≈ 8.43 µM) |
| COc1ccc(C(=O)Nc2cccc3c2CCCC3)c(OC)c1 | < 0.7 µg/mL |
| CCOC(=O)CC(NC(=O)c1cccs1)c1ccc(C)cc1 (centres undefined) | > 47.6 µg/mL |
| CSc1nc(-c2ccc(C)cc2)nc(N)c1C#N | < 0.1 µg/mL |
| CC(=O)c1cn(C(=O)c2ccc(Cl)cc2)c2ccccc12 | 3.6 µg/mL (≈ 12.1 µM) |
| Cc1cccc(C)c1NC(=O)CN1CCN(C(=O)c2ccc(OCc3cn4ccccc4n3)cc2)CC1 | > 74.6 µg/mL |
| N#Cc1ccccc1NC(=S)NC(=O)C1CCC1 | > 38.9 µg/mL |
| Cc1noc(C)c1COc1ccc(C(=O)N2CCCC(C(N)=O)C2)cc1 (centres undefined) | > 53.6 µg/mL |
| CNC(=S)/N=C(\Nc1ccc(C)cc1)c1ccccc1 | 1.3 µg/mL (≈ 4.59 µM) |
| CC(C)C1N(C(=O)N(C)C)CCN1S(=O)(=O)c1ccccc1 (centres undefined) | > 48.8 µg/mL |
| CC1CC1C(=O)OCC(=O)N(C)CC(=O)Nc1ccc(F)cc1 (centres undefined) | > 48.4 µg/mL |
| COc1ccc(C2Nc3ccccc3C(=O)N2Cc2ccccc2)cc1OC (centres undefined) | < 0.4 µg/mL |
| O=C(COC(=O)C1CC2C=CC1C2)Nc1c(Br)cc([N+](=O)[O-])cc1Br (centres undefined) | 57.2 µg/mL (≈ 121 µM) |
| Cc1ccccc1C(=O)NC(=S)N(C)CCc1ccccn1 | > 47 µg/mL |
| CN(C)CCCNc1c2ccccc2nc2ccccc12 | > 41.9 µg/mL |
| Cc1ccc(C(=O)NCC(=O)NC23CC4CC(CC(C4)C2)C3)cc1 | 4.2 µg/mL (≈ 12.9 µM) |
| CCCn1c(N)c(C(=O)CN2CCc3ccccc3C2)c(=O)n(C)c1=O | > 53.5 µg/mL |
